This is an account of results in US8835392B2, “Mimetic peptides and the use thereof in the form of 20S, 26S and immunoproteasome inhibitors” (Technische Universität, priority 2005, dated 2014).

Each structure is given as a SMILES string. Entries after “also recorded” stand apart in the source; their conditions may differ. Where a SMILES comes first, the peptide text is derived from it. The star is where a group is joined. Cbz = O=C(OCc1ccccc1)*; Boc = CC(C)(C)OC(=O)*; OtBu = CC(C)(C)O*

The subject of data set [1] is Human melanoma cells (MeWo). Nature of the data set: Viability of human melanoma cells (MeWo), crystal violet-staining. It counts as cell-based. Particulars: Homo sapiens, 72 h, read-out: concentration at rate of survival of 50% of the cells. The protocol: (§1) A, Human melanoma cells (MeWo) were treated with increasing concentrations of the compounds 15 or 3 (MG132) for 72 hours. The viability of the cells after the treatment with compound 15 (-♦-) and with MG132 (-□-) was detected by a crystal-violet-staining. B and C, MeWo cells were co-cultivated with the compounds 15 and 3 (MG132) for 24 hours. The cells were subsequently fixed in 70% ethanol, and treated with RNAse A. The DNA was stained with propidium iodide (5 μg/ml), and analysed by means of FACS (FACS Calibur flow cytometer; Beckton Dickinson). The statistical significance was detected by the chi-square-test. The relative distribution of the cells that were present in the G1-(black), in the S-(white) or in the G2 phase (hatched) of the cellular cycle is shown for both compounds as examined (15 in B and MG132 in C).
Human melanoma cells (MeWo) were incubated for 72 h with different concentrations of the inhibitor 15 and 28, and the viability of the cells was determined by means of crystal violet-staining (FIG. 8).

In data set [2] the target is T1, 20S proteasome β2 trypsin-like activity (VGR-MCA) (Homo sapiens, UniProt P49720+Q99436).
T1 construct: Proteasomes were isolated from red blood cells; from tissue; host or cells: red blood cells
Briefly: Protease assay, trypsin-like activity of isolated 20S proteasomes. The data set is classed as biochemical. Particulars: isolated 20S proteasome; VGR-MCA 50 μM; 15 min pre-incubation; read-out: IC50 β2 Trypsin-like (R). Here is the method: (§2) Proteasomes were isolated from red blood cells. Cells were lysed with DTT (1 mM), and the stroma-free supernatant was loaded on DEAE-sepharose (Toyopearls). Proteasome was eluted with an NaCl-gradient in TEAD (20 mM TrisCl pH 7.4, 1 mM EDTA, 1 mM azide, 1 mM DTT) of 100 to 300 mM NaCl. Proteasome was concentrated using ammonium sulfate-precipitation (between 40 and 70% saturation) and was separated in a 10-40% sucrose-gradient through centrifugation at 40.000 rpm for 16 hours (SW40; L7, Beckman & Coulter). Finally, the proteasomes were purified on a MonoQ-column and eluted with an NaCl-gradient at about 280 mM NaCl. The fractions containing purified proteasome were dialysed against 50 mM NaCl in TEAD and stored on ice. The purity was determined using SDS-PAGE.
(§3) Suc-LLVY-AMC, Z-VGR-AMC and LLE-AMC (BACHEM, Calbiochem) was used, in order to determine the chymotrypsin-like, trypsin-like or caspase-like (post-acidic)-activities of the proteasome. Substrate was incubated with proteasome at 37° C. in assay-buffer (20 mM Tris/Cl, pH 7.2, 1 mM EDTA, 1 mM DTT) for one hour. 100 ng proteasome was pre-incubated with 0.01-10 μM of the inhibitor for […]. The reaction was started by the addition of substrate (50 μM). The AMC as released was detected using fluorescence emission at 460 nm (excitation at 390 nm) using a TECAN-fluorimeter. The activity was calculated in fluorescence-units. The inhibition is depicted by IC50-values.
(§4) The effects thereof were compared with the one of the commonly used proteasomal inhibitor 3 (MG132). The chymotrypsin-like (Suc-LLVY-AMC), the trypsin-like (Bz-VGR-AMC), and the caspase-like (Z-LLE-AMC)-activities of 20S proteasomes were determined following incubation for one hour at 37° C.
(§5) The IC50-values form the inhibition of the proteasome were calculated at increasing concentrations of the inhibitor. The samples were pre-incubated for 15 min in ice. The assay was started through the addition of 50 μM of one of the following fluorogenic peptide substrates:
(§6) The release of MCA was determined at 460 nm emission (excitation 390 nm). The IC50-values as calculated for MG132 served as controls.

Data set [3] concerns the target T2, 20S proteasome β1 caspase-like activity (LLE-MCA) (Homo sapiens, UniProt P28072+Q99436).
T2 construct: Proteasomes were isolated from red blood cells; from tissue; host or cells: red blood cells
Briefly: Protease assay, caspase-like activity of isolated 20S proteasomes. The data set is classed as biochemical. Particulars: isolated 20S proteasome; LLE-MCA 50 μM; 15 min pre-incubation; read-out: IC50 β1 Caspase-like (E). Here is the method:
as §2, §3, §4, §5, §6

In data set [4] the test system is Human melanoma cells (MeWo). Nature of the data set: Cell cycle arrest in MeWo cells, propidium iodide FACS. The data set is classed as cell-based. Particulars: 24 hours. The protocol:
as §1
Human melanoma cells (MeWo) were with the compounds 15 and 3 (MG132) for 24 hours co-cultivated. The cells were washed with PBS, in 70% ethanol fixed and subsequently treated with RNAse A. The DNA was stained with propidium iodide (5 μg/ml) and analysed by means of flow-cytometry (FACS Calibur flow cytometer; Beckton Dickinson). The relative dispersion of the cells that were present in different phases of the cell cycle, could thus be detected. […] The statistical significance was detected by the Chi-square test.

A further data set concerns Fibroblasts. Briefly: Viability of fibroblasts (control). It counts as cell-based. Particulars: Fibroblast, identical conditions (72 h), read-out: concentration for 50% reduction of the viability.
In data set [5] the target is T3, 20S proteasome β5 chymotrypsin-like activity (GLL-MCA) (Homo sapiens, UniProt P20618+P28074).
T3 construct: Proteasomes were isolated from red blood cells; from tissue; host or cells: red blood cells
Briefly: Protease assay, chymotrypsin-like activity of isolated 20S proteasomes (GLL substrate). The data set is classed as biochemical. Particulars: isolated 20S proteasome; GLL-MCA 50 μM; 15 min pre-incubation; read-out: IC50 β5 Chym.-like (L). Here is the method: as §2, §3, §5, §6

Another data set has as its system T4, 20S proteasome.
T4 construct: Proteasomes were isolated from red blood cells; from tissue; host or cells: red blood cells
Nature of the data set: Inhibition of the different proteasomal activities, summary statements. Particulars: isolated proteasomes, specific substrates. The data set is classed as biochemical. The protocol: The specific inhibition of a single catalytic site is of specific interest for the development of drugs. Thus, the inhibition of the different proteasomal activities of the proteasome was analysed (see also example 6). The different cleavage-preferences of the proteasome were determined by the specific substrate for the hydrophobic (chymotrypsin-like), the trypsine-like and the caspase-like activities of isolated proteasomes.
as §3, §4

Data set [6] concerns the target T5, proteasomal activity in HeLa-cells (Homo sapiens, UniProt P20618+P28074).
T5 construct: endogenous in cells; host or cells: HeLa
Nature of the data set: Intracellular inhibition of proteasomes in cultivated HeLa-cells. It counts as cell-based. Particulars: for reduction of the specific proteasomal activity in cells: HeLa cells, 1 μM. The protocol: A, HeLa-cells were cultivated were 24 hours in the presence of the inhibitor. The protein concentration was determined in accordance with the cellular lysis according to Bradford in order to normalise the proteasomal activities to the different amounts of cells. Subsequently Complete (Roche) was added to all lysates, and the proteasomal activity was determined through the hydrolysis of Suc-LLVY-AMC. B, HeLa-cells was incubated with 1 μM of compound 15 for 2, 4, 6 and 24 hours. Cells were lysed, and proteins were separated through SDS-PAGE on a 10% gel, blotted to a PVDF-membrane. The accumulation of the poly-ubiquitinylated proteins was detected in a Western blot by an anti-ubiquitine-antibody (DAKO). C, HeLa-Cells were treated with increasing concentrations of the inhibitor 15, 25, 26, 27, and 28 for 24 hours (lane 1: without inhibitor; lane 2: 10 nM; lane 3: 100 nM and lane 4: 1 μM of the given inhibitor). Cells were lysed, proteins were separated on 15% gels, and the accumulation of the poly-ubiquitinylated proteins was controlled through Western blot.
HeLa-Cells were cultivated in RPMI, supplemented with 10% FCS and penicillin/streptomycin, at 5% CO2. Inhibitors were administered from 100×-stock solutions (in DMSO) at the final concentrations as indicated, and incubated with the cells for at least 20 hours.
Cultivated cells (HeLa) were harvested lysed and with 0.1% NP40 in TEAD in the presence of the commercially available protease-inhibitor-mixture Complete (Roche). The proteasomal activity was measured in 10 μl of the lysate using Suc-LLVY-AMC as a substrate. The protein content was quantified by means of Bradford (Protein assay; BioRad).
An application on cell cultures or animals requires that the concentrations of the inhibitors are chose as low as required. The specific proteasomal activity was reduced to a value of below 50% in cells that were treated with 1 μM of the compounds 15, 22, 25, 26, or 28, respectively (FIG. 6A).

Data set [7] has as its target T6, 20S proteasome β5 chymotrypsin-like activity (Suc-LLVY-AMC) (Homo sapiens, UniProt P20618+P28074).
T6 construct: Proteasomes were isolated from red blood cells; from tissue; host or cells: red blood cells
Briefly: Protease assay, chymotrypsin-like activity of isolated 20S proteasomes (LLVY substrate). It counts as biochemical. Particulars: isolated 20S proteasome; LLVY-MCA 50 μM; 15 min pre-incubation; read-out: IC50 β5 Chymotrypsin-like (Y). The protocol: as §2, §3
The chymotrypsin-like (Suc-LLVY-AMC), the trypsin-like (Bz-VGR-AMC), and the caspase-like (Z-LLE-AMC)-activities of 20S proteasomes were determined following incubation for one hour at 37° C.
as §5, §6

Data set [8] relates to caspase 3/7 activation in HeLa-cells. Briefly: Apoptosis-assay, caspase 3/7-activity (Apo-One). The data set is classed as cell-based. Particulars: 1 μM, 20 hours. The protocol:
HeLa-cells that were cultivated for 20 hours in the presence of the given inhibitor, were subsequently incubated for 2 hours with caspase-substrate (Apo-One; Promega). The activation of caspases 3/7 was measured at 538 nm (excitation at 485 nm). Treatment of the cells with TNFα or with MG132 served as control.
For this, 10,000 HeLa-cells pro well were seeded in a 96-well-plate, and co-cultivated for 20 hours with 1 μM of the inhibitors 7, 8, 11, 13-16, 18, 20-23 and 25-28. The induction of apoptosis was determined by measuring of the caspase 3/7-activity (Apo-One®-Assay, Promega).

As to `CC(C)C[C@@H](C=O)NC(=O)[C@H](CC(C)C)NC(=O)[C@H](CC(C)C)NC(=O)OCc1ccccc1` [Compound 3, reference compound] (Cbz-Leu-Leu-Leu-aldehyde), the IC50 is 35 nM in [1], 9.22 µM in [2], 2290 nM in [3] and 500 to 1000 nM in the data set on Fibroblasts. The “concentration giving arrest of the cell cycle in the G2 phase” value in [4] worked out at 100 nM.
For `CC(C)C[C@@H](C=O)NC(=O)[C@H](CC(=O)OC(C)(C)C)NC(=O)[C@H](CC(C)C)NC(=O)OC(C)(C)C` [Compound 13] (Boc-Leu-Asp(OtBu)-Leu-aldehyde), the IC50 came out at 0.102 µM in data set [5] and 98 nM in data set [3]. In the data set with 20S proteasome, the “which proteasomal activities are inhibited (site selectivity)” value is “inhibited all of the proteasomal hydrolytic activities”. In addition, in [6], the “reduction of the specific proteasomal activity in cells” value is reported as “markedly reduction”.
For `CC(C)C[C@@H](C=O)NC(=O)[C@H](CC(=O)O)NC(=O)[C@@H](N)CC(C)C` [Compound 14] (H-Leu-Asp-Leu-aldehyde), the IC50 in data set [2] was > 10 µM; in data set [5], > 10 µM; in data set [3] it was > 10000 nM; in data set [7], > 10000 nM.
For the compound `CC(C)C[C@H](NC(=O)OCc1ccccc1)C(=O)N[C@@H](CC(C)C)C(=O)N[C@@H](CC(C)C)C(O)C#Cc1ccccc1` (stereo partly drawn) [Compound 21], the figures for the IC50 in data set [5] and in data set [7] were > 10 µM and 1300 nM, respectively. For the same compound, the “which proteasomal activities are inhibited (site selectivity)” value in the data set on 20S proteasome is “exclusive reduction of the chymotryptic activity”. Besides, in data set [6], the “reduction of the specific proteasomal activity in cells” value was “very weak inhibition”.
On to `CC(C)C[C@H](NC(=O)OCc1ccccc1)C(=O)N[C@@H](CC(C)C)C(=O)N[C@@H](CC(C)C)C(=O)C(=O)NCc1ccccc1` [Compound 26], for which, in data set [8], the “induction of apoptosis (activation of caspase 3 and 7)” value is “beginning apoptosis; also recorded: strong induction of apoptosis”. In addition, the IC50 in data set [3] was found to be 1720 nM. Further, the “which proteasomal activities are inhibited (site selectivity)” value with 20S proteasome is “inhibited the chymotryptic and the caspase-like sites”. In data set [6] (cultivated cells), the membrane-permeation entry was “membrane-permeation” and the “stability during the incubation periods” value is “sufficient stability”. In addition, the “proteasomal activity reduced to” value in [6] (cultivated cells, remaining activity) came to 10%. The IC50 in data set [7] came to 441 nM.
